In US20240285613A1, “TREATMENT FOR AUTOIMMUNE DISEASES” (LDN Pharma Limited, priority 2021, published 2024):

Legend:
Assay type in all cases: cell-based, human
Conditions in all cases: 4 h
[1] = test system: 5-HT receptor 4, transcript variant a, mRNA; test: Microarray gene expression in CD3+ lymphocytes, probe ILMN_1676350 (HTR4)
Description: (§1) CD3+ lymphocytes were isolated from the blood of haematologically normal volunteers. Cells placed into 25 cm^3 flasks at a concentration of 1×10^6/ml, and left to equilibrate in an incubator with a humidified atmosphere and 5% CO2 in air at 37° C. […] RNA extraction was performed using Trizol according to standard procedures, before being processed for microarray analysis according to the standard methodologies. Briefly, equal amounts of biotinylated cRNA was hybridised to the Illumina human HT 12-v3 arrays for 18 h and subsequently processed according to manufacturer's instructions before scanning on an Illumina BeadArray Reader. The image data were processed using default values in GenomeStudio v2009.1 with imputation of missing data, before loading onto GeneSpring v9.0 for data normalisation and filtering. Data analyses were performed using Excel software, and the ratio of gene expression signals in treated vs. untreated calculated.

[2] = test system: 5-HT receptor 4, transcript variant hb, mRNA; test: Microarray gene expression in CD3+ lymphocytes, probe ILMN_1808258 (HTR4)
Description: as §1

[3] = test system: 5-HT receptor 7 (adenylate cyclase-coupled), transcript variant a, mRNA; test: Microarray gene expression in CD3+ lymphocytes, probe ILMN_1744217 (HTR7)
Description: as §1

[4] = test system: 5-HT receptor 3A, transcript variant 1, mRNA; test: Microarray gene expression in CD3+ lymphocytes, probe ILMN_1681492 (HTR3A)
Description: as §1

[5] = test system: mRNA for one or more of 5-HT receptor proteins; test: Microarray gene expression in CD3+ lymphocytes, summary over 5-HT receptors
Description: as §1

[6] = test system: 5-HT receptor 3A, transcript variant 2, mRNA; test: Microarray gene expression in CD3+ lymphocytes, probe ILMN_1662070 (HTR3A)
Description: as §1

5-HT receptor 1E, mRNA = test: Microarray gene expression in CD3+ lymphocytes, probe ILMN_1794095 (HTR1E)
Description: as §1

5-HT receptor 2B, mRNA = test: Microarray gene expression in CD3+ lymphocytes, probe ILMN_1735764 (HTR2B)
Description: as §1

5-HT receptor 2C, mRNA = test: Microarray gene expression in CD3+ lymphocytes, probe ILMN_1801357 (HTR2C)
Description: as §1

[7] = test system: 5-HT receptor 3A, transcript variant 2, mRNA; test: Microarray gene expression in CD3+ lymphocytes, probe ILMN_2371079 (HTR3A)
Description: as §1

For O=C1CC[C@@]2(O)[C@H]3Cc4ccc(O)c5c4[C@@]2(CCN3CC2CC2)[C@H]1O5 [NTX, 17-cyclopropylmethyl-4.5-epoxy-3,14-dihydroxymorphinan-6-one], the “gene expression signal, HTR4 transcript variant a” value ([1]; LDN 10 nM) was 100.20, the “gene expression signal, HTR4 transcript variant a” value ([1]; NTX 10 uM) was 96.10 and the “gene expression signal, HTR4 transcript variant hb” value ([2]; LDN 10 nM) was 93.50. The “gene expression signal, HTR4 transcript variant hb” value ([2]; NTX 10 uM) was 88.20, the “gene expression signal, HTR7 transcript variant a” value ([3]; LDN 10 nM) was 80.00 and the “gene expression signal, HTR7 transcript variant a” value ([3]; NTX 10 uM) was 86.60. The “gene expression signal, HTR3A transcript variant 1” value ([4]; LDN 10 nM) was 94.00, the “gene expression signal, HTR3A transcript variant 1” value ([4]; NTX 10 uM) was 86.75 and the “levels of mRNA for one or more of 5-HT receptor proteins” value ([5]; higher dose naltrexone (10 uM)) was “increase the levels of mRNA”. For the same molecule, the “levels of mRNA for one or more of 5-HT receptor proteins” value ([5]; low dose naltrexone (10 nM)) was “increase the levels of mRNA”, the “gene expression signal, HTR3A transcript variant 2” value ([6]; LDN 10 nM) was 82.35 and the “gene expression signal, HTR3A transcript variant 2” value ([6]; NTX 10 uM) was 80.60. The “gene expression signal, HTR1E” value (5-HT receptor 1E, mRNA; LDN 10 nM) was 101.20, the “gene expression signal, HTR1E” value (5-HT receptor 1E, mRNA; NTX 10 uM) was 95.70 and the “gene expression signal, HTR2B” value (5-HT receptor 2B, mRNA; LDN 10 nM) was 147.45. The “gene expression signal, HTR2B” value (5-HT receptor 2B, mRNA; NTX 10 uM) was 177.95, the “gene expression signal, HTR2C” value (5-HT receptor 2C, mRNA; LDN 10 nM) was 85.50 and the “gene expression signal, HTR2C” value (5-HT receptor 2C, mRNA; NTX 10 uM) was 89.50. For the same molecule, the “gene expression signal, HTR3A transcript variant 2” value ([7]; LDN 10 nM) was 124.70 and the “gene expression signal, HTR3A transcript variant 2” value ([7]; NTX 10 uM) was 151.75.
